The values that follow come from PubChem BioAssay (NCI).

Some test systems named below: 786-0 renal; HOP-62 NSCLC; SF-268 CNS; A549 NSCLC; SF-539 CNS; MDA-MB-435; U251 CNS; HOP-92 NSCLC; NCI-H226 lung; OVCAR-4 ovarian.
Test in all cases: inhibition of tumour cell growth, NCI panel, 48 h

SMILES strings stand for the structures.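 Results reflect a 48-hour exposure of cells in 96-well plates to compound at five concentrations. The concentration for 50% growth inhibition is given as GI50. TGI marks complete inhibition of growth.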 Some results are limits rather than exact numbers.

As to `CC(C)Nc1ccc(Nc2ccccc2)cc1`, the GI50 is 17.8 µM with 786-0 renal; 23.6 µM in the test with HOP-62 NSCLC; 17 µM with SF-268 CNS; 26.2 µM in the test with A549 NSCLC; 5.34 µM in the test on SF-539 CNS; 15.4 µM in the test with MDA-MB-435. For the same compound, the values for the GI50 with U251 CNS, in the test with HOP-92 NSCLC and with NCI-H226 lung were 12.8 µM, 12 µM and 19.9 µM, respectively. Moreover, the TGI with 786-0 renal was > 100 µM; with HOP-62 NSCLC it was 66.9 µM; in the test on SF-268 CNS, 50.4 µM; in the test on A549 NSCLC, > 100 µM; in the test on SF-539 CNS, 38.6 µM; in the test on MDA-MB-435 it was 46 µM. Further, the TGI was found to be 32 µM in the test with U251 CNS, 30 µM in the test with HOP-92 NSCLC and 69.3 µM in the test with NCI-H226 lung.
With `CC(C)(O)C#Cc1ccc(/C=C/C(=O)c2ccccc2)s1`, the GI50 is 14.8 µM with 786-0 renal; 16.7 µM in the test with SF-268 CNS; 17.1 µM in the test on OVCAR-4 ovarian; 16.5 µM in the test with A549 NSCLC; 15.8 µM in the test on SF-539 CNS; 12.6 µM with MDA-MB-435. In addition, the GI50 was 13.6 µM in the test with U251 CNS, 13.6 µM in the test with HOP-92 NSCLC and 18.8 µM with NCI-H226 lung. Besides, the TGI with 786-0 renal was 28.8 µM; in the test on SF-268 CNS it was 32.8 µM; in the test on OVCAR-4 ovarian it was 39 µM; in the test with A549 NSCLC, 30.5 µM; in the test on SF-539 CNS, 29.2 µM; in the test with MDA-MB-435, 26.4 µM. The TGI with U251 CNS was found to be 26.5 µM; with HOP-92 NSCLC, 27.1 µM; with NCI-H226 lung, 42.3 µM.
For `C#CCN(Cc1nc2cc(C(F)(F)F)ccc2nc1-c1ccccc1)c1ccc(OC(F)(F)F)cc1`, the GI50 in the test with 786-0 renal is > 100 µM; with HOP-62 NSCLC, > 100 µM; in the test with SF-268 CNS, 47.5 µM; in the test with OVCAR-4 ovarian it was > 100 µM; in the test with A549 NSCLC, 63.8 µM; in the test with SF-539 CNS it was 20 µM. Besides, the GI50 is 39.4 µM with MDA-MB-435, 48.8 µM with U251 CNS and 18.5 µM in the test on HOP-92 NSCLC. Also, the TGI is > 100 µM in the test on 786-0 renal; > 100 µM in the test on HOP-62 NSCLC; > 100 µM in the test with SF-268 CNS; > 100 µM in the test on OVCAR-4 ovarian; > 100 µM in the test with A549 NSCLC; 41.2 µM with SF-539 CNS. For the same compound, the TGI in the test on MDA-MB-435 was > 100 µM; in the test with U251 CNS it was > 100 µM; with HOP-92 NSCLC it was 77.3 µM.
As for `Cc1cc(Cl)cc2c(N=Nc3ccccc3[N+](=O)[O-])c(O)[nH]c12`, the TGI in the test with 786-0 renal, with HOP-62 NSCLC, in the test on SF-268 CNS, with OVCAR-4 ovarian, in the test with A549 NSCLC and with SF-539 CNS was > 100 µM each time. In addition, the TGI in the test on MDA-MB-435, in the test with U251 CNS and in the test with HOP-92 NSCLC was > 100 µM in each case.
For the compound `O=C(Nc1ccccc1)c1nn(-c2cc(S(=O)(=O)O)c([N+](=O)[O-])cc2Cl)[n+](-c2cc(S(=O)(=O)[O-])c([N+](=O)[O-])cc2Cl)n1`, the TGI in the test on 786-0 renal, in the test on HOP-62 NSCLC, with SF-268 CNS, with OVCAR-4 ovarian, in the test on A549 NSCLC and in the test on SF-539 CNS was > 100 µM each time. The TGI in the test with MDA-MB-435, with U251 CNS and in the test with NCI-H226 lung was > 100 µM each time.
For the compound `COc1cc(-c2nc3sccn3c2-c2ccnc(NCCNS(=O)(=O)c3ccc(Cl)cc3)n2)ccc1F`, the GI50 in the test on 786-0 renal was 7.77 µM; with HOP-62 NSCLC, 5.01 µM; in the test on SF-268 CNS, 5.75 µM; in the test with OVCAR-4 ovarian it was 3.72 µM; in the test on A549 NSCLC, 3.86 µM; in the test on SF-539 CNS, 6.98 µM. For the same compound, the GI50 was 3.63 µM in the test on MDA-MB-435, 7.67 µM in the test on U251 CNS and 2.37 µM in the test with NCI-H226 lung. The TGI in the test with 786-0 renal, with HOP-62 NSCLC, in the test with SF-268 CNS, in the test on OVCAR-4 ovarian, in the test with A549 NSCLC and in the test on SF-539 CNS was > 100 µM throughout. The TGI with MDA-MB-435 is 58.1 µM; with U251 CNS it was > 100 µM; with NCI-H226 lung it was 10.5 µM.
As to `CC(C)c1c(C(=O)Nc2ccccc2)c(-c2ccccc2)c(-c2ccc(F)cc2)n1CC[C@@H]1CC=CC(=O)O1`, the GI50 with 786-0 renal is 1.68 µM; in the test on HOP-62 NSCLC, 1.85 µM; with SF-268 CNS, 1.81 µM; in the test on A549 NSCLC it was 1.99 µM; in the test with SF-539 CNS it was 1.61 µM; in the test on MDA-MB-435 it was 1.7 µM. The GI50 in the test with U251 CNS was 1.7 µM; with HOP-92 NSCLC, 0.419 µM; with NCI-H226 lung it was 1.71 µM. The TGI in the test with 786-0 renal stood at 3.56 µM; with HOP-62 NSCLC it was 4.14 µM; in the test on SF-268 CNS it was 3.65 µM; in the test on A549 NSCLC it was 4.6 µM; with SF-539 CNS it was 3.14 µM; in the test with MDA-MB-435, 3.27 µM. Also, the figures for the TGI in the test on U251 CNS, in the test with HOP-92 NSCLC and in the test with NCI-H226 lung were 3.17 µM, 2.28 µM and 3.26 µM, respectively.
For `N#C/C(=N\Nc1ccc(Cl)cc1)C(=O)Nc1cc(-c2ccccc2)nn1-c1ccccc1`, the GI50 with 786-0 renal is 4.05 µM; in the test on HOP-62 NSCLC it was 3.31 µM; in the test on SF-268 CNS, 2.65 µM; with OVCAR-4 ovarian, 2.25 µM; with A549 NSCLC, 3.2 µM; in the test on SF-539 CNS, 3.29 µM. The GI50 in the test on MDA-MB-435 was 2.79 µM; in the test on U251 CNS, 3.08 µM; in the test on HOP-92 NSCLC, 1.07 µM. Further, the TGI was > 100 µM with 786-0 renal; > 100 µM with HOP-62 NSCLC; > 100 µM with SF-268 CNS; 7.62 µM with OVCAR-4 ovarian; > 100 µM with A549 NSCLC; > 100 µM with SF-539 CNS. The TGI was > 100 µM with MDA-MB-435, > 100 µM in the test with U251 CNS and 4.49 µM in the test on HOP-92 NSCLC.
On to `O=C(Nc1ccc(F)cc1)Nc1ccccc1CNc1nc(Nc2ccc(OCCN3CCCC3)cc2)ncc1Cl`, for which the GI50 was 0.92 µM in the test with 786-0 renal; 1.39 µM with HOP-62 NSCLC; 1.26 µM in the test with SF-268 CNS; 1.11 µM with OVCAR-4 ovarian; 2.72 µM in the test with A549 NSCLC; 0.831 µM with SF-539 CNS. For the same compound, the GI50 in the test on MDA-MB-435 was 1.03 µM; in the test on U251 CNS, 1.28 µM; in the test with HOP-92 NSCLC, 0.849 µM. Besides, the TGI with 786-0 renal was found to be 1.77 µM; in the test on HOP-62 NSCLC it was 4.21 µM; with SF-268 CNS it was 4.84 µM; in the test with OVCAR-4 ovarian it was 2.93 µM; in the test with A549 NSCLC, 20.9 µM; in the test with SF-539 CNS, 1.57 µM. Moreover, the TGI with MDA-MB-435 turned out to be 2.28 µM; in the test on U251 CNS, 3.73 µM; with HOP-92 NSCLC it was 2.49 µM.
